Counter-ions that a name gives are not always drawn.
Row | melting point | SMILES
1 | > 280 °C | Cc1nc(N2CCCCC2)c2[nH]c(-c3cc4ccccc4o3)cc2n1.Cl (hydrate or solvate) [Example 85, 2-(2-Methyl-4-piperidylpyrrolo[4,5-d]pyrimidin-6-yl)benzo[b]furan Hydrochloride Monohydrate]
2 | 264 to 266 °C | Cc1nc(N2CCCCC2)c2[nH]c(-c3ccc(Cl)c(Cl)c3Cl)cc2n1.Cl (hydrate or solvate)
3 | 243 to 245 °C | Cc1nc(N2CCCCC2)c2[nH]c(-c3ccc(F)c(F)c3)cc2n1.Cl (hydrate or solvate) [Example 121, 6-(3,4-Difluorophenyl)-2-methyl-4-piperidylpyrrolo[3,2-d]pyrimidine Hydrochloride Hydrate]
4 | 244.5 to 246 °C (dec.) | Cc1nc(N2CCCCC2)c2[nH]c(-c3cccc(Cl)c3)cc2n1.Cl (hydrate or solvate) [Example 70e, 6-(3-Chlorophenyl)-2-methyl-4-piperidylpyrrolo[3,2-d]pyrimidine Hydrochloride Monohydrate]
5 | > 280 °C | Cc1nc(N2CCCCC2)c2[nH]c(-c3ccc(-c4ccc(F)c(Cl)c4)o3)cc2n1.Cl (hydrate or solvate)
6 | 287 to 289 °C | Cc1nc(N2CCCCC2)c2[nH]c(-c3ccccc3F)cc2n1.Cl (hydrate or solvate) [Example 102, 6-(2-Fluorophenyl)-2-methyl-4-piperidylpyrrolo[3,2-d]pyrimidine Hydrochloride Monohydrate]
7 | 183 to 185.5 °C | Cc1nc(N2CCCCC2)c2[nH]c(-c3ccn(S(=O)(=O)c4ccccc4)c3)cc2n1.Cl (hydrate or solvate) [Example 101, 3-(2-Methyl-4-piperidylpyrrolo[4,5-d]pyrimidin-6-yl)-1-(phenylsulfonyl)pyrrole Hydrochloride Hydrate]
8 | > 270 °C | Cc1nc(N2CC=CC2)c2[nH]c(-c3cccc(C(F)(F)F)c3)cc2n1 (as salt: hydrochloride) (hydrate or solvate) [Example 197d, 2-Methyl-4-(3-pyrrolinyl)-6-[3-(trifluoromethyl)phenyl]pyrrolo[3,2-d]pyrimidine Hydrochloride Monohydrate]
9 | > 300 °C (dec.) | Cc1nc(N2CCCCC2)c2[nH]c(-c3ccc(O)cc3)cc2n1.Cl (hydrate or solvate) [Example 72, 2-methyl-4-piperidyl-6-(4-hydroxyphenyl)pyrrolo[3,2-d]pyrimidine]
10 | > 280 °C | Cc1nc(N2CCCCC2)c2[nH]c(-c3cc(F)cc(F)c3)cc2n1.Cl (hydrate or solvate)
11 | 280 to 283.5 °C | Cc1nc(N2CCCCC2)c2[nH]c(-c3cnccn3)cc2n1.Cl (hydrate or solvate)
12 | 244 to 245.5 °C | Cc1nc(N2CCCCC2)c2[nH]c(C)cc2n1.Cl (hydrate or solvate) [Example 104, 2,6-Dimethyl-4-piperidylpyrrolo[3,2-d]pyrimidine Hydrochloride Hydrate]
13 | > 280 °C | Cc1nc(N2CCCCC2)c2[nH]c(-c3ccc4ccccc4c3)cc2n1.Cl (hydrate or solvate) [Example 160, 2-Methyl-6-(2-naphthyl)-4-piperidylpyrrolo[3,2-d]pyrimidine Hydrochloride Hydrate]
14 | 261 to 263 °C | COc1ccccc1-c1cc2nc(C)nc(N3CCCCC3)c2[nH]1.Cl (hydrate or solvate)
15 | > 280 °C | Cc1nc(N2CCCCC2)c2[nH]c(-c3cccc(O)c3)cc2n1.Cl (hydrate or solvate)
16 | 254 to 255 °C | Cc1nc(N2CCCCC2)c2[nH]c(Cc3ccc(F)cc3)cc2n1.Cl
17 | 164 to 167 °C | Cc1nc(N2CCCCC2)c2[nH]c(-c3ccc4c(c3)CCC4)cc2n1.Cl (hydrate or solvate) [Example 130, 6-Indan-5-yl-2-methyl-4-piperidylpyrrolo[3,2-d]pyrimidine Hydrochloride Monohydrate]
18 | > 280 °C | Cc1nc(N2CCCCC2)c2[nH]c(-c3ccc(-c4ccccc4)cc3)cc2n1.Cl (hydrate or solvate)
19 | 238 to 240 °C | Cc1nc(N2CCCCC2)c2[nH]c(-c3cc(C)oc3C)cc2n1.Cl (hydrate or solvate) [Example 108, 2,5-Dimethyl-3-(2-methyl-4-piperidylpyrrolo[4,5-d]pyrimidin-6-yl)furan Hydrochloride Monohydrate]
20 | 279 to 281 °C | Cc1nc(N2CCCCC2)c2[nH]c(-c3ccc(S(C)(=O)=O)cc3)cc2n1.Cl (hydrate or solvate) [Example 142, 1-[2-Methyl-4-piperidylpyrrolo[4,5-d]pyrimidin-6-yl]-4-(methylsulfonyl)benzene Hydrochloride Monohydrate]
21 | > 280 °C | Cc1nc(N2CCCCC2)c2[nH]c(-c3sc4ccccc4c3C)cc2n1.Cl (hydrate or solvate)
22 | 287 to 289 °C (dec.) | Cc1nc(N2CCCCC2)c2[nH]c(-c3ccc(F)cc3)cc2n1.Cl
23 | 279 to 281 °C | Cc1nc(N2CCCCC2)c2[nH]c(-c3cc(F)ccc3F)cc2n1.Cl (hydrate or solvate)
24 | > 280 °C | Cc1nc(N2CCCCC2)c2[nH]c(-c3ccc4c(c3)OCCO4)cc2n1.Cl (hydrate or solvate) [Example 125, 6-(2-Methyl-4-piperidylpyrrolo[4,5-d]pyrimidin-6-yl)-2H,3H-benzo[e]1,4-dioxane Hydrochloride Monohydrate]
25 | > 280 °C | Cc1nc(N2CCCCC2)c2[nH]c(-c3c(F)cccc3F)cc2n1.Cl (hydrate or solvate)
26 | > 280 °C | Cc1nc(N2CCCCC2)c2[nH]c(-c3cc(C(F)(F)F)cc(C(F)(F)F)c3)cc2n1.Cl [Example 122]

The next lines start with the molecule.

Row | SMILES | melting point
27 | CC(=O)c1c(-c2ccccc2)[nH]c2c(N3CCCCC3)nc(C)nc12 [Example 49, 7-Acetyl-2-methyl-6-phenyl-4-piperidylpyrrolo[3,2-d]pyrimidine] | 188 to 190 °C
28 | Cc1nc(N2CCCCC2)c2[nH]c(-c3ccccc3)cc2[n+]1[O-] [Example 184, 2-Methyl-6-phenyl-4-piperidylpyrrolo[3,2-d]pyrimidin-1-ol] | 169 to 170 °C
29 | Cc1nc(N2CCN(S(=O)(=O)c3ccccc3)CC2)c2[nH]c(-c3ccccc3)cc2n1 (as salt: hydrochloride) (hydrate or solvate) [Example 227, 1-(2-Methyl-6-phenylpyrrolo[2,3-e]pyrimidin-4-yl(phenylsulfonyl)piperazine Hydrochloride Monohydrate] | 242 to 243 °C
30 | Cc1nc(N2CCCCC2)c2sc(C(C)(C)C)cc2[n+]1[O-].Cl | 202 to 203 °C (dec.)
31 | Cc1nc(N2CC=CC2)c2[nH]c(-c3cccc(Cl)c3)cc2n1 (as salt: hydrochloride) (hydrate or solvate) [Example 198, 6-(3-Chlorophenyl)-2-methyl-4-(3-pyrrolinyl)pyrrolo[3,2-d]pyrimidine Hydrochloride Hydrate] | 287.5 to 293 °C
32 | Cc1nc(N2CCCCC2)c2oc(-c3ccccc3)cc2n1 (as salt: hydrochloride) (hydrate or solvate) | > 290 °C
33 | Cc1nc(N2CCCCC2)c2[nH]c(COc3ccccc3)cc2n1.Cl | 238 to 239 °C
34 | CCCc1nc(N2CCCCC2)c2[nH]c(-c3ccccc3)cc2n1 (as salt: hydrochloride) (hydrate or solvate) [Example 196c, 6-Phenyl-4-piperidyl-2-propylpyrrolo[3,2-d]pyrimidine Hydrochloride Monohydrate] | 258 to 262.5 °C
35 | CCCCc1cc2nc(C)cc(N3CCCCC3)c2o1.Cl | 172 to 173 °C
36 | COc1ccc(-c2[nH]c3c(N4CCCCC4)nc(C)nc3c2C)cc1.Cl | > 280 °C
37 | Cc1nc(N2CCN(c3ccccc3)CC2)c2[nH]c(-c3ccccc3)cc2n1.Cl (hydrate or solvate) | 232 to 234.5 °C
38 | c1ccc(-c2cc3nc(N4CCCCC4)nc(N4CCCCC4)c3[nH]2)cc1 (as salt: hydrochloride) [Example 208, 6-Phenyl-2,4-dipiperidylpyrrolo[3,2-d]pyrimidine Hydrochloride] | > 272 °C
39 | Cc1nc(N2CCc3ccccc3C2)c2sc(-c3ccccc3)cc2n1 (as salt: hydrochloride) (hydrate or solvate) [Example 221b, 2-Methyl-6-phenyl-4-[2-1,2,3,4-tetrahydroisoquinolyl)thiopheno[3,2-d]pyrimidine Hydrochloride Hydrate] | 263 to 265 °C
40 | Cl.c1ccc2oc(-c3cc4ncnc(N5CCCCC5)c4[nH]3)cc2c1 (hydrate or solvate) | 278.5 to 281 °C
41 | Cc1nc(N2CCCCC2)c2[nH]c(-c3ccc4c(c3)OCO4)c(C)c2n1.Cl (hydrate or solvate) | 268 to 269 °C
42 | COc1ccc(Cc2cc3nc(C)nc(N4CCCCC4)c3[nH]2)cc1.Cl | 263 to 267 °C
43 | Cc1nc(N2[C@H](C)CCC[C@@H]2C)c2[nH]c(-c3ccc(F)cc3)cc2n1 (as salt: hydrochloride) (hydrate or solvate) | > 275 °C
44 | Cc1nc(N2CCCCC2)c2[nH]c(CCc3ccccc3)cc2n1.Cl (hydrate or solvate) [Example 168, 2-Methyl-6-(2-phenylethyl)-4-piperidylpyrrolo[3,2-d]pyrimidine Hydrochloride Hydrate] | 236 to 238 °C
45 | Cc1nc(NC[C@H]2CC[C@H](CNS(=O)(=O)c3cccc4ccccc34)CC2)c2[nH]c(-c3ccccc3)cc2n1 (as salt: hydrochloride) (hydrate or solvate) [Example 194, trans-[(4-{[(2-Methyl-6-phenylpyrrolo[2,3-e]pyrimidin-4-yl)amino]methyl}cyclohexyl)methyl](naphthylsulfonyl)amine Hydrochloride Hydrate] | 165 to 170 °C
46 | Cl.c1ccc(-c2[nH]c3c(N4CCCCC4)ncnc3c2-c2ccccc2)cc1 (hydrate or solvate) | 266 to 268.5 °C
47 | Fc1ccc(-c2cc3nc(C4CC4)nc(N4CCCCC4)c3[nH]2)cc1 (as salt: hydrochloride) (hydrate or solvate) [Example 209c, 2-Cyclopropyl-6-(4-fluorophenyl)-4-piperidylpyrrolo[3,2-d]pyrimidine Hydrochloride Hydrate] | > 280 °C

From US6583154B1, “Compounds and methods which modulate feeding behavior and related diseases” (Amgen Inc., priority 1998, dated 2003)
